Measured values published in ChEMBL document CHEMBL1201862, “PubChem BioAssay data set” (2004).
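These data come from cells grown in 96-well plates and exposed to compound for 48 hours at five concentrations. Here, GI50 denotes the concentration required for 50% inhibition of growth.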 Activity calls are given as the source filed them. Rule as the data show it: active = GI50 up to about 1.1 µM and inactive = higher.

Assays:
Assay in all cases: growth of human tumour cells (NCI), 48 h
[1] = system: SK-OV-3
[2] = system: CAKI-1
[3] = system: NCI-H522
[4] = system: SF-539
[5] = system: M19-MEL
[6] = system: KM12
[7] = system: SNB-75
[8] = system: DMS-273
[9] = system: UACC-62
[10] = system: SNB-19
[11] = system: K562
[12] = system: RPMI-8226
[13] = system: A549
[14] = system: OVCAR-3
[15] = system: LXFL 529
[16] = system: DMS-114
[17] = system: SF-295
[18] = system: EKVX
[19] = system: TK-10
[20] = system: HT-29
[21] = system: CCRF-CEM
[22] = system: SR
[23] = system: SW-620
[24] = system: UO-31
[25] = system: SF-268
[26] = system: HCT-116
[27] = system: 786-0
[28] = system: M14
[29] = system: HOP-62
[30] = system: LOX IMVI
[31] = system: UACC-257
[32] = system: NCI-H226
[33] = system: SK-MEL-2
[34] = system: IGROV-1
[35] = system: HOP-92
[36] = system: HL-60
[37] = system: DLD-1
[38] = system: NCI-H23
[39] = system: SK-MEL-28
[40] = system: HCC 2998
[41] = system: COLO 205
[42] = system: XF498
[43] = system: RXF 631
[44] = system: Malme-3M
[45] = system: A498
[46] = system: SN12C
[47] = system: MOLT-4
[48] = system: SNB-78
[49] = system: OVCAR-4
[50] = system: OVCAR-8
[51] = system: ACHN
[52] = system: KM-20L2
[53] = system: U-251
[54] = system: SK-MEL-5
[55] = system: OVCAR-5
[56] = system: RXF 393
[57] = system: NCI-H460
[58] = system: HCT-15

Q: Which results are given for CC1(CO)C(=O)OC12CCCCC2 (configuration not stated)?
A: GI50 [1]: > 100 µM (inactive); GI50 [2]: > 100 µM (inactive); GI50 [3]: > 100 µM (inactive); GI50 [4]: > 100 µM (inactive); GI50 [5]: > 100 µM (inactive); GI50 [6]: > 100 µM (inactive); GI50 [7]: 84.5 µM (inactive); GI50 [8]: > 100 µM (inactive); GI50 [9]: > 100 µM (inactive); GI50 [10]: > 100 µM (inactive); GI50 [11]: > 100 µM (inactive); GI50 [12]: > 100 µM (inactive); GI50 [13]: > 100 µM (inactive); GI50 [14]: > 100 µM (inactive); GI50 [15]: > 100 µM (inactive); GI50 [16]: > 100 µM (inactive); GI50 [17]: > 100 µM (inactive); GI50 [18]: > 100 µM (inactive); GI50 [19]: > 100 µM (inactive); GI50 [20]: > 100 µM (inactive); GI50 [21]: > 100 µM (inactive); GI50 [22]: 84.9 µM (inactive); GI50 [23]: > 100 µM (inactive); GI50 [24]: 63.4 µM (inactive); GI50 [25]: > 100 µM (inactive); GI50 [26]: > 100 µM (inactive); GI50 [27]: > 100 µM (inactive); GI50 [28]: > 100 µM (inactive); GI50 [29]: > 100 µM (inactive); GI50 [30]: > 100 µM (inactive); GI50 [31]: > 100 µM (inactive); GI50 [32]: > 100 µM (inactive); GI50 [33]: > 100 µM (inactive); GI50 [34]: > 100 µM (inactive); GI50 [35]: > 100 µM (inactive); GI50 [36]: > 100 µM (inactive); GI50 [37]: > 100 µM (inactive); GI50 [38]: > 100 µM (inactive); GI50 [39]: > 100 µM (inactive); GI50 [40]: > 100 µM (inactive); GI50 [41]: > 100 µM (inactive); GI50 [42]: > 100 µM (inactive); GI50 [43]: > 100 µM (inactive); GI50 [44]: > 100 µM (inactive); GI50 [45]: 44.4 µM (inactive); GI50 [46]: > 100 µM (inactive); GI50 [47]: > 100 µM (inactive); GI50 [48]: > 100 µM (inactive); GI50 [49]: > 100 µM (inactive); GI50 [50]: > 100 µM (inactive)

Q: How did the GI50 [1] turn out when CC1=C(C(=O)Nc2ccc([N+](=O)[O-])cc2)C(c2ccco2)C(C(=O)Nc2ccc([N+](=O)[O-])cc2)=C(C)N1 was run?
A: 9.35 µM (inactive)

Q: What about the GI50 [2] of the same molecule?
A: 20.3 µM (inactive)

Q: What about the GI50 [3] of the same molecule?
A: 12.4 µM (inactive)

Q: And the GI50 [4]?
A: 16.5 µM (inactive)

Q: What about the GI50 [5] of the same molecule?
A: 13.1 µM (inactive)

Q: And the GI50 [6]?
A: 6.41 µM (inactive)

Q: What about the GI50 [7] of the same molecule?
A: 2.72 µM (inactive)

Q: And the GI50 [10]?
A: 27.1 µM (inactive)

Q: And the GI50 [11]?
A: 6.37 µM (inactive)

Q: What about the GI50 [51] of the same molecule?
A: 4.4 µM (inactive)

Q: And the GI50 [12]?
A: 2.9 µM (inactive)

Q: What about the GI50 [13] of the same molecule?
A: 18.1 µM (inactive)

Q: What about the GI50 [14] of the same molecule?
A: 11.2 µM (inactive)

Q: And the GI50 [15]?
A: 6.75 µM (inactive)

Q: What about the GI50 [16] of the same molecule?
A: 5 µM (inactive)

Q: What about the GI50 [17] of the same molecule?
A: 28.1 µM (inactive)

Q: What about the GI50 [18] of the same molecule?
A: 3.63 µM (inactive)

Q: And the GI50 [19]?
A: 12.3 µM (inactive)

Q: What about the GI50 [20] of the same molecule?
A: 25.8 µM (inactive)

Q: What about the GI50 [21] of the same molecule?
A: 5.18 µM (inactive)

Q: What about the GI50 [52] of the same molecule?
A: 17.4 µM (inactive)

Q: What about the GI50 [23] of the same molecule?
A: 24.4 µM (inactive)

Q: What about the GI50 [24] of the same molecule?
A: 7.24 µM (inactive)

Q: What about the GI50 [25] of the same molecule?
A: 21.3 µM (inactive)

Q: What about the GI50 [27] of the same molecule?
A: 31.8 µM (inactive)

Q: And the GI50 [28]?
A: 21.9 µM (inactive)

Q: What about the GI50 [29] of the same molecule?
A: 10 µM (inactive)

Q: And the GI50 [53]?
A: 21.9 µM (inactive)

Q: And the GI50 [30]?
A: 19.6 µM (inactive)

Q: What about the GI50 [31] of the same molecule?
A: 18.5 µM (inactive)

Q: And the GI50 [32]?
A: 19.1 µM (inactive)

Q: And the GI50 [33]?
A: 7.52 µM (inactive)

Q: What about the GI50 [34] of the same molecule?
A: 14.9 µM (inactive)

Q: What about the GI50 [35] of the same molecule?
A: 14.8 µM (inactive)

Q: What about the GI50 [36] of the same molecule?
A: 5.18 µM (inactive)

Q: And the GI50 [54]?
A: 14.5 µM (inactive)

Q: And the GI50 [37]?
A: 9.68 µM (inactive)

Q: And the GI50 [55]?
A: 30.9 µM (inactive)

Q: And the GI50 [38]?
A: 13.4 µM (inactive)

Q: And the GI50 [39]?
A: 28.2 µM (inactive)

Q: And the GI50 [40]?
A: 8.77 µM (inactive)

Q: And the GI50 [41]?
A: 15.8 µM (inactive)

Q: And the GI50 [42]?
A: 0.6 µM (active)

Q: And the GI50 [56]?
A: 4.61 µM (inactive)

Q: And the GI50 [57]?
A: 20.1 µM (inactive)

Q: What about the GI50 [43] of the same molecule?
A: 35.8 µM (inactive)

Q: And the GI50 [44]?
A: 12.4 µM (inactive)

Q: What about the GI50 [45] of the same molecule?
A: 10.5 µM (inactive)

Q: And the GI50 [46]?
A: 16.3 µM (inactive)

Q: What about the GI50 [47] of the same molecule?
A: 4.33 µM (inactive)

Q: What about the GI50 [48] of the same molecule?
A: 11.9 µM (inactive)

Q: And the GI50 [49]?
A: 3.88 µM (inactive)

Q: And the GI50 [50]?
A: 26.9 µM (inactive)

Q: Which results are given for CC(C(=O)Oc1ccc2ccccc2c1-c1c(O)ccc2ccccc12)c1ccccc1 (configuration not stated)?
A: GI50 [1]: 15.4 µM (inactive); GI50 [2]: 11.5 µM (inactive); GI50 [3]: > 10 µM (inactive); GI50 [4]: 16.3 µM (inactive); GI50 [5]: 15.5 µM (inactive); GI50 [6]: 11.4 µM (inactive); GI50 [7]: 9.79 µM (inactive); GI50 [8]: > 10 µM (inactive); GI50 [9]: 13 µM (inactive); GI50 [10]: 14.7 µM (inactive); GI50 [11]: 15 µM (inactive); GI50 [51]: 13.7 µM (inactive); GI50 [12]: 15.3 µM (inactive); GI50 [13]: 13.6 µM (inactive); GI50 [14]: 12.6 µM (inactive); GI50 [15]: 14.1 µM (inactive); GI50 [16]: 12.3 µM (inactive); GI50 [17]: 12.7 µM (inactive); GI50 [18]: 16.8 µM (inactive); GI50 [19]: 17.6 µM (inactive); GI50 [20]: 14.8 µM (inactive); GI50 [21]: 16.3 µM (inactive); GI50 [23]: 15.2 µM (inactive); GI50 [24]: 1.37 µM (inactive); GI50 [25]: > 10 µM (inactive); GI50 [26]: 12.9 µM (inactive); GI50 [27]: 14.8 µM (inactive); GI50 [28]: 13.2 µM (inactive); GI50 [29]: 15.5 µM (inactive); GI50 [53]: 15.1 µM (inactive); GI50 [31]: 13.7 µM (inactive); GI50 [32]: 10.1 µM (inactive); GI50 [33]: 15.1 µM (inactive); GI50 [34]: 17.1 µM (inactive); GI50 [35]: 10.3 µM (inactive); GI50 [36]: 13.2 µM (inactive); GI50 [54]: 13.7 µM (inactive); GI50 [55]: 16.9 µM (inactive); GI50 [38]: 14.4 µM (inactive); GI50 [39]: 15.4 µM (inactive); GI50 [40]: 14.5 µM (inactive); GI50 [41]: 17.1 µM (inactive); GI50 [42]: 14.2 µM (inactive); GI50 [56]: 11 µM (inactive); GI50 [57]: 13.7 µM (inactive); GI50 [43]: 17.2 µM (inactive); GI50 [44]: 17.4 µM (inactive); GI50 [45]: 15.9 µM (inactive); GI50 [46]: 14.7 µM (inactive); GI50 [47]: 7.67 µM (inactive); GI50 [58]: 12.5 µM; GI50 [48]: 15.4 µM (inactive); GI50 [49]: 10.9 µM (inactive); GI50 [50]: 18.8 µM (inactive)
